In one experiment the target is 5-HT6 receptor (Homo sapiens, UniProt P50406). In words: Radioligand binding, 5-HT6 ([3H]-LSD displacement). The following applies: for displacement % at 10^−6M, 5-HT6: values marked c in the 5-HT6 column.
A further experiment addresses T1, 5-HT1A receptor (Homo sapiens, UniProt P08908).
T1 sequence (P08908 1-422): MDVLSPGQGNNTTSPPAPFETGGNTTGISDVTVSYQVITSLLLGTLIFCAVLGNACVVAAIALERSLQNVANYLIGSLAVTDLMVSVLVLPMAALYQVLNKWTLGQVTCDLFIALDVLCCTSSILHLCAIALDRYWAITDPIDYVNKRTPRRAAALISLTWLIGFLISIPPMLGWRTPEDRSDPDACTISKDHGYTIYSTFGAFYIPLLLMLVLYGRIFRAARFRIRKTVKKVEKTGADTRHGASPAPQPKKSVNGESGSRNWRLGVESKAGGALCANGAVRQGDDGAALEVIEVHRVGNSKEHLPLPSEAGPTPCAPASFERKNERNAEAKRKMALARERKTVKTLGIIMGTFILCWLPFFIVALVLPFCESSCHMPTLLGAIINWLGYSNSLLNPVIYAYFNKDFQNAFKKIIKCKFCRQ
As to the kind of experiment: Radioligand binding, 5-HT1A ([3H]-8-OH-DPAT displacement).

The target in another experiment is 5-HT7 receptor (Homo sapiens, UniProt P34969). As to the kind of experiment: Radioligand binding, 5-HT7 ([3H]-5-CT displacement).
5-HT7 receptor, sequence (P34969 1-432 limits assumed): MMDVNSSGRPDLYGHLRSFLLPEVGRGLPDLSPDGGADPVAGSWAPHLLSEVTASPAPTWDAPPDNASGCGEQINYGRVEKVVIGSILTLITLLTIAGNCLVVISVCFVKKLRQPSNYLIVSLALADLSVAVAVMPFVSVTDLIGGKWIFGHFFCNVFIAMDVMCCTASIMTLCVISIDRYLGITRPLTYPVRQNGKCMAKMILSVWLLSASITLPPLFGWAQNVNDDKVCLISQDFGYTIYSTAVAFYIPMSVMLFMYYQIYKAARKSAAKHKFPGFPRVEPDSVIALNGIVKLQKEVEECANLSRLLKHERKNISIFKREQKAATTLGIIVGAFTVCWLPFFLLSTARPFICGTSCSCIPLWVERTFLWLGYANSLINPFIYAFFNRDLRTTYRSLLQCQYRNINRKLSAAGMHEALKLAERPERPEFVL
Another experiment addresses dopamine D2L receptor (Homo sapiens, UniProt P14416). In words: Radioligand binding, D2 ([3H]-raclopride displacement).

Marks after values point to notes of the source that are not given here.

dopamine D2L receptor, sequence (P14416 whole entry): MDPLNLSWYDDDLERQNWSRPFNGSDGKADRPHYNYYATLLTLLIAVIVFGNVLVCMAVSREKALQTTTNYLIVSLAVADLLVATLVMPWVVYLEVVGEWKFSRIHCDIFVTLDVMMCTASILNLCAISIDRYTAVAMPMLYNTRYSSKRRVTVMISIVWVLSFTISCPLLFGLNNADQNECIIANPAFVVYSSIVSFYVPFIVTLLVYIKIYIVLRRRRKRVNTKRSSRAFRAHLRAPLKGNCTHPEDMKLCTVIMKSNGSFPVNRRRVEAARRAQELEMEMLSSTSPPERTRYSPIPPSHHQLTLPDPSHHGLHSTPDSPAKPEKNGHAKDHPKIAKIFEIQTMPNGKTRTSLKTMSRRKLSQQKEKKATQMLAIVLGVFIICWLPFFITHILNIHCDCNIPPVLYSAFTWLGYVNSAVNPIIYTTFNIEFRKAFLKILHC
5-HT6 receptor, sequence (P50406 whole entry): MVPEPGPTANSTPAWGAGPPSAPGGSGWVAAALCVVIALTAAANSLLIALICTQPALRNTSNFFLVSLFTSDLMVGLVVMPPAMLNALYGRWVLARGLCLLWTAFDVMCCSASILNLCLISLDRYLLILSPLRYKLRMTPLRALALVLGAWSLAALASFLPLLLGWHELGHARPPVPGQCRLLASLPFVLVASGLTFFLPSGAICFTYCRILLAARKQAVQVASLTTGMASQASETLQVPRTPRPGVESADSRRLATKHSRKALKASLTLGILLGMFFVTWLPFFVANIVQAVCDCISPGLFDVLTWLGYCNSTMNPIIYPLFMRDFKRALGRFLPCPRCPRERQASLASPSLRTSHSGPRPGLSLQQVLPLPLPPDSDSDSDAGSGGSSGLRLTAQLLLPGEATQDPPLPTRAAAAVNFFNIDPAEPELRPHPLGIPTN

As to “8-carbonitrile-1-(naphthalen-1-ylsulfonyl)-4-(piperazin-1-yl)-1H-pyrrolo[3,2-c]quinoline [Compound 67]”, the “displacement % at 10^−6M, 5-HT6” value on 5-HT6 receptor is 100^c %.

In the case of `O=S(=O)(c1cccc(Cl)c1)n1ccc2c(NC3CNC3)nc3ccccc3c21` [Compound 2, 1-((3-chlorophenyl)sulfonyl)-N-(azetidin-3-yl)-1H-pyrrolo[3,2-c]quinolin-4-amine], the “displacement % at 10^−6M, 5-HT6” value on 5-HT6 receptor is on record as 98^c %.

As for `O=S(=O)(c1ccccc1)n1ccc2c(NC3CCNC3)nc3ccccc3c21` (stereo not shown) [Compound 4, 1-(phenylsulfonyl)-N-(pyrrolidin-3-yl)-1H-pyrrolo[3,2-c]quinolin-4-amine], the inhibitory constant (Ki) (commonly the equilibrium dissociation constant of an inhibitor or competing ligand from its target) on 5-HT1A receptor amounted to 9150 nM; on 5-HT7 receptor, 7890 nM; at 5-HT6 receptor, 4 nM.

With `O=S(=O)(c1cccc(F)c1)n1ccc2c(N[C@H]3CCNC3)nc3ccccc3c21` [Compound 9, (S)-1-((3-fluorophenyl)sulfonyl)-N-(pyrrolidin-3-yl)-1H-pyrrolo[3,2-c]quinolin-4-amine], the “displacement % at 10^−6M, 5-HT6” value at 5-HT6 receptor is 99^c %.

Take `O=S(=O)(c1cc(F)ccc1F)n1ccc2c(NC3CCNC3)nc3ccccc3c21` (stereo not shown) [Compound 12, 1-((2,5-difluorophenyl)sulfonyl)-N-(pyrrolidin-3-yl)-1H-pyrrolo[3,2-c]quinolin-4-amine]: the figures for the inhibitory constant (Ki) at 5-HT1A receptor, at 5-HT7 receptor and on 5-HT6 receptor were 7060 nM, 5220 nM and 9 nM, respectively.

As to `O=S(=O)(c1cccc(C(F)(F)F)c1)n1ccc2c(N[C@H]3CCNC3)nc3ccccc3c21` [Compound 15, (S)-1-((3-(trifluoromethyl)phenyl)sulfonyl)-N-(pyrrolidin-3-yl)-1H-pyrrolo[3,2-c]quinolin-4-amine], the “displacement % at 10^−6M, 5-HT6” value on 5-HT6 receptor was 98^c %.

`O=S(=O)(c1cccc(C(F)(F)F)c1)n1ccc2c(N[C@@H]3CCNC3)nc3ccccc3c21` [Compound 16, (R)-1-((3-(trifluoromethyl)phenyl)sulfonyl)-N-(pyrrolidin-3-yl)-1H-pyrrolo[3,2-c]quinolin-4-amine]: the “displacement % at 10^−6M, 5-HT6” value at 5-HT6 receptor is 99^c %.

For `CC(C)(C)c1ccc(S(=O)(=O)n2ccc3c(NC4CCNC4)nc4ccccc4c32)cc1` (stereo not shown) [Compound 17, 1-((4-(tert-butyl)phenyl)sulfonyl)-N-(pyrrolidin-3-yl)-1H-pyrrolo[3,2-c]quinolin-4-amine], the Ki at 5-HT1A receptor was 6310 nM; at 5-HT7 receptor it was 1290 nM; at 5-HT6 receptor, 101 nM.

`Nc1ccc(S(=O)(=O)n2ccc3c(NC4CCNC4)nc4ccccc4c32)cc1` (stereo not shown) [Compound 18, 1-((4-aminophenyl)sulfonyl)-N-(pyrrolidin-3-yl)-1H-pyrrolo[3,2-c]quinolin-4-amine]: the “displacement % at 10^−6M, 5-HT6” value on 5-HT6 receptor was 100^c %.

Regarding `Nc1ccc(S(=O)(=O)n2ccc3c(N[C@H]4CCNC4)nc4ccccc4c32)cc1` [Compound 19, (S)-1-((4-aminophenyl)sulfonyl)-N-(pyrrolidin-3-yl)-1H-pyrrolo[3,2-c]quinolin-4-amine], the “displacement % at 10^−6M, 5-HT6” value on 5-HT6 receptor is listed as 100^c %.

As to `Nc1ccc(S(=O)(=O)n2ccc3c(N[C@@H]4CCNC4)nc4ccccc4c32)cc1` [Compound 20, (R)-1-((4-aminophenyl)sulfonyl)-N-(pyrrolidin-3-yl)-1H-pyrrolo[3,2-c]quinolin-4-amine], the “displacement % at 10^−6M, 5-HT6” value at 5-HT6 receptor is on record as 99^c %.

With `O=S(=O)(c1cccc(Cl)c1)n1ccc2c(NC3CCNC3)nc3cc(F)ccc3c21` (stereo not shown) [Compound 24, 7-fluoro-1-((3-chlorophenyl)sulfonyl)-N-(pyrrolidin-3-yl)-1H-pyrrolo[3,2-c]quinolin-4-amine], on 5-HT6 receptor, the “displacement % at 10^−6M, 5-HT6” value was 95^c %.

With `O=S(=O)(c1cccc(Cl)c1)n1ccc2c(NC3CCNC3)nc3ccc(Cl)cc3c21` (stereo not shown) [Compound 25, 8-chloro-1-((3-chlorophenyl)sulfonyl)-N-(pyrrolidin-3-yl)-1H-pyrrolo[3,2-c]quinolin-4-amine], the “displacement % at 10^−6M, 5-HT6” value at 5-HT6 receptor is 96^c %.

As to `CNC1CCN(c2nc3ccccc3c3c2ccn3S(=O)(=O)c2ccccc2)C1` (stereo not shown) [Compound 26, N-methyl-1-(1-(phenylsulfonyl)-1H-pyrrolo[3,2-c]quinolin-4-yl)pyrrolidin-3-amine], the “displacement % at 10^−6M, 5-HT6” value at 5-HT6 receptor is 90^c %.

Take `O=S(=O)(c1ccccc1)n1ccc2c(N3CCNCC3)nc3ccccc3c21` [Compound 27, 1-(phenylsulfonyl)-4-(piperazin-1-yl)-1H-pyrrolo[3,2-c]quinoline]: the values for the Ki at dopamine D2L receptor and on 5-HT1A receptor were 1130 nM and 298 nM, respectively.

Consider `O=S(=O)(c1ccc(Cl)c(Cl)c1)n1ccc2c(N3CCNCC3)nc3ccccc3c21` [Compound 34, 1-((3,4-dichlorophenyl)sulfonyl)-4-(piperazin-1-yl)-1H-pyrrolo[3,2-c]quinoline], for which the inhibition constant Ki came out at 1550 nM on dopamine D2L receptor and 1980 nM at 5-HT7 receptor.

For `O=S(=O)(c1cccc(C(F)(F)F)c1)n1ccc2c(N3CCNCC3)nc3ccccc3c21` [Compound 35, 1-((3-(trifluoromethyl)phenyl)sulfonyl)-4-(piperazin-1-yl)-1H-pyrrolo[3,2-c]quinoline], the inhibition constant Ki at dopamine D2L receptor came out at 2630 nM; on 5-HT7 receptor it was 6390 nM.

As for `CC(C)(C)c1ccc(S(=O)(=O)n2ccc3c(N4CCNCC4)nc4ccccc4c32)cc1` [Compound 41, 1-((4-(tert-butyl)phenyl)sulfonyl)-4-(piperazin-1-yl)-1H-pyrrolo[3,2-c]quinoline], the Ki on dopamine D2L receptor is 1680 nM; at 5-HT7 receptor, 8450 nM; at 5-HT6 receptor it was 41 nM.

For the compound `O=S(=O)(c1ccc2ccccc2c1)n1ccc2c(N3CCNCC3)nc3ccccc3c21` [Compound 44, 1-(naphthalen-2-ylsulfonyl)-4-(piperazin-1-yl)-1H-pyrrolo[3,2-c]quinoline], the “displacement % at 10^−6M, 5-HT6” value at 5-HT6 receptor is 99^c %.

For the compound `O=S(=O)(c1ccc(Cl)s1)n1ccc2c(N3CCNCC3)nc3ccccc3c21` [Compound 46, 1-((5-chlorothiophen-2-yl)sulfonyl)-4-(piperazin-1-yl)-1H-pyrrolo[3,2-c]quinoline], the inhibition constant (Ki) at dopamine D2L receptor was 817 nM; on 5-HT1A receptor, 590 nM; on 5-HT6 receptor, 8 nM.

Regarding `Cc1ccc2sc(S(=O)(=O)n3ccc4c(N5CCNCC5)nc5ccccc5c43)cc2c1` [Compound 47, 1-((5-methylbenzo[b]thiophen-2-yl)sulfonyl)-4-(piperazin-1-yl)-1H-pyrrolo[3,2-c]quinoline], the results for the Ki at dopamine D2L receptor, on 5-HT7 receptor and on 5-HT6 receptor were 1560 nM, 2960 nM and 28 nM, respectively.

Take `Clc1cccc(Cn2ccc3c(N4CCNCC4)nc4ccccc4c32)c1` [Compound 49, 1-(3-chlorobenzyl)-4-(piperazin-1-yl)-1H-pyrrolo[3,2-c]quinoline]: the Ki at 5-HT1A receptor came to 3260 nM; on 5-HT7 receptor, 3270 nM.

As to `O=C(c1cccc(Cl)c1)n1ccc2c(N3CCNCC3)nc3ccccc3c21` [Compound 51, (3-chlorophenyl)-(4-(piperazin-1-yl)-1H-pyrrolo[3,2-c]quinolin-1-yl)methanone], the “displacement % at 10^−6M, 5-HT6” value at 5-HT6 receptor is 90^C %.

In the case of `CN1CCN(c2nc3ccccc3c3c2ccn3S(=O)(=O)c2ccc(F)cc2)CC1` [Compound 56, 1-((4-fluorophenyl)sulfonyl)-4-(4-methylpiperazin-1-yl)-1H-pyrrolo[3,2-c]quinoline], the Ki turned out to be 393 nM at dopamine D2L receptor and 152 nM on 5-HT1A receptor.

Regarding `CN1CCN(c2nc3ccccc3c3c2ccn3S(=O)(=O)c2cccc3ccccc23)CC1` [Compound 58, 1-(naphthalen-1-ylsulfonyl)-4-(4-methylpiperazin-1-yl)-1H-pyrrolo[3,2-c]quinoline], the inhibition constant Ki at dopamine D2L receptor was determined as 826 nM; at 5-HT1A receptor it was 211 nM; on 5-HT6 receptor, 36 nM.

Take `CC(C)c1ccc(S(=O)(=O)n2ccc3c(N4CCNCC4)nc4ccc([N+](=O)[O-])cc4c32)cc1` [Compound 63, 8-nitro-1-((4-isopropylphenyl)sulfonyl)-4-(piperazin-1-yl)-1H-pyrrolo[3,2-c]quinoline]: the “displacement % at 10^−6M, 5-HT6” value on 5-HT6 receptor is 86^c %.

In the case of `Nc1ccc2nc(N3CCNCC3)c3ccn(S(=O)(=O)c4ccc(Cl)c(Cl)c4)c3c2c1` [Compound 65, 8-amino-1-((3,4-dichlorophenyl)sulfonyl)-4-(piperazin-1-yl)-1H-pyrrolo[3,2-c]quinoline], on 5-HT6 receptor, the “displacement % at 10^−6M, 5-HT6” value was 90^c %.

For `O=S(=O)(c1cccc2ccccc12)n1ccc2c(N3CCNCC3)nc3ccc(Cl)cc3c21` [Compound 71, 8-chloro-1-(naphthalen-1-ylsulfonyl)-4-(piperazin-1-yl)-1H-pyrrolo[3,2-c]quinoline], the “displacement % at 10^−6M, 5-HT6” value at 5-HT6 receptor is listed as 98^c %.

For `O=S(=O)(c1cccc(Cl)c1)n1ccc2c(N3CCCNCC3)nc3ccccc3c21` [Compound 75, 1-((3-chlorophenyl)sulfonyl)-4-(1,4-diazepan-1-yl)-1H-pyrrolo[3,2-c]quinoline], at 5-HT6 receptor, the “displacement % at 10^−6M, 5-HT6” value is 100^c %.

On to `O=S(=O)(c1cccc2cccnc12)n1ccc2c(N3CCOCC3)nc3ccccc3c21` [Compound 79, 1-(quinolin-8-ylsulfonyl)-4-(morpholine-4-yl)-1H-pyrrolo[3,2-c]quinoline], for which the inhibition constant (Ki) on dopamine D2L receptor was 1230 nM; on 5-HT7 receptor it was 3420 nM; on 5-HT6 receptor, 95 nM.

For the compound `O=S(=O)(c1cc(F)ccc1F)n1ccc2c(OC3CCNC3)nc3ccccc3c21` (stereo not shown) [Compound 81, 1-((2,5-difluorophenyl)sulfonyl)-4-(pyrrolidin-3-yloxy)-1H-pyrrolo[3,2-c]quinoline], the “displacement % at 10^−6M, 5-HT6” value on 5-HT6 receptor was 96^c %.

For the origin of these results see patent publication US20170239237A1, “PYRROLOQUINOLINE DERIVATIVES AS 5-HT6 ANTAGONISTS, PREPARATION METHOD AND USE THEREOF” (Uniwersytet Jagiellonski, priority 2013, published 2017).
